Laboratory results taken from patent US9012635B2, “Pyridone amides and analogs exhibiting anti-cancer and anti-proliferative activities” (Deciphera Pharmaceuticals, LLC, priority 2013, dated 2015).
Structures can show the parent of a compound that is named as a salt.

What was measured:
[1] = target: T1, FMS kinase (Homo sapiens, UniProt P07333); experiment: FMS kinase assay (pyruvate kinase/lactate dehydrogenase coupled, A340); format: biochemical; settings: enzymatic assay, ATP 500 μM
T1 construct: purchased Millipore
T1 sequence (P07333 538-972): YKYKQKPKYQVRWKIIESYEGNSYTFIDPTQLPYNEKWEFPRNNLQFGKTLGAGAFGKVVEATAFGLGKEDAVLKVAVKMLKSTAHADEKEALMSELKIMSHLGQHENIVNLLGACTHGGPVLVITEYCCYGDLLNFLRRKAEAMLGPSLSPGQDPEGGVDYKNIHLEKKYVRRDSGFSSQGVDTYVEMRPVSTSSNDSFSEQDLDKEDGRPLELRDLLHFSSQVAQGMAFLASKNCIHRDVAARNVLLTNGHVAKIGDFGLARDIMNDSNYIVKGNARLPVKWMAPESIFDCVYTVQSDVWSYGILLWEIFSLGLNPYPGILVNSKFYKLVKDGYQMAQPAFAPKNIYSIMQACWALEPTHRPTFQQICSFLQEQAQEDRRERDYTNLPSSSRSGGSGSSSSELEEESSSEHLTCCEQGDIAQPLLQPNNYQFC
Procedure: Activity of FMS kinase was determined by following the production of ADP from the FMS kinase reaction with ATP and poly E4Y as substrates through coupling with the pyruvate kinase/lactate dehydrogenase system (e.g., Schindler et al. Science (2000) 289: 1938-1942). In this assay, the oxidation of NADH (thus the decrease at A340 nm) was continuously monitored spectrophometrically. The reaction mixture (100 μl) contained FMS (purchased from Millipore) (10 nM), polyE4Y (1 mg/mL), MgCl2 (10 mM), pyruvate kinase (4 units), lactate dehydrogenase (0.7 units), phosphoenol pyruvate (1 mM), and NADH (0.28 mM) and ATP (500 μM) in 90 mM Tris buffer containing 0.2% octyl-glucoside and 1% DMSO, pH 7.5. Immediately, the inhibition reaction was started by mixing serial diluted test compound with the above reaction mixture. The absorption at 340 nm was monitored continuously for 4 hours at 30° C. on Synergy 2 plate reader. The reaction rate was calculated using the 3 to 4 h time frame. Percent inhibition was obtained by comparison of reaction rate with that of a control (i.e. in the absence of test compound). IC50 values were calculated from a series of percent inhibition values determined at a range of inhibitor concentrations using software routines as implemented in the GraphPad Prism software package.

[2] = test system: EBC-1 cells; experiment: EBC-1 cell proliferation assay (resazurin); format: cell-based; settings: Homo sapiens, 67 h + 5 h resazurin, read-out: EBC1 Proliferation
Procedure: (§1) EBC-1 cells (catalog #JCRB0820) were obtained from the Japan Health Science Research Resources Bank, Osaka, Japan. Briefly, cells were grown in DMEM supplemented with 10% characterized fetal bovine serum (Invitrogen, Carlsbad, Calif.) at 37° C., 5% CO2, 95% humidity. Cells were allowed to expand until reaching 70-95% confluency at which point they were subcultured or harvested for assay use.
A serial dilution of test compound was dispensed into a 96-well black clear bottom plate (Corning, Corning, N.Y.). For each cell line, five thousand cells were added per well in 200 μL complete growth medium. Plates were incubated for 67 hours at 37° C., 5% CO2, 95% humidity. At the end of the incubation period 40 μL of a 440 μM solution of resazurin (Sigma, St. Louis, Mo.) in PBS was added to each well and incubated for an additional 5 hours at 37° C., 5% CO2, 95% humidity. Plates were read on a Synergy2 reader (Biotek, Winooski, Vt.) using an excitation of 540 nm and an emission of 600 nm. Data was analyzed using Prism software (GraphPad, San Diego, Calif.) to calculate IC50 values.

[3] = target: T2, c-KIT kinase (Seq. ID No. 1) (Homo sapiens, UniProt P10721); experiment: c-KIT kinase assay (pyruvate kinase/lactate dehydrogenase coupled, A340); format: biochemical; settings: enzymatic assay, ATP 200 μM; read-out: cKIT
T2 construct: c-KIT (cKIT residues T544-V976, from ProQinase, 5.4 nM); purchased ProQinase
Procedure: Activity of c-KIT kinase (Seq. ID No. 1) was determined by following the production of ADP from the kinase reaction through coupling with the pyruvate kinase/lactate dehydrogenase system (e.g., Schindler et al. Science 2000, 289, pp. 1938-1942). In this assay, the oxidation of NADH (thus the decrease at A340 nm) was continuously monitored spectrophotometrically. The reaction mixture (100 μl) contained c-KIT (cKIT residues T544-V976, from ProQinase, 5.4 nM), polyE4Y (1 mg/mL), MgCl2 (10 mM), pyruvate kinase (4 units), lactate dehydrogenase (0.7 units), phosphoenol pyruvate (1 mM), and NADH (0.28 mM) in 90 mM Tris buffer containing 0.2% octyl-glucoside and 1% DMSO, pH 7.5. Test compounds were incubated with c-KIT (Seq. ID No. 1) and other reaction reagents at 22° C. for less than 2 min before ATP (200 μM) was added to start the reaction. The absorption at 340 nm was monitored continuously for 0.5 hours at 30° C. on Polarstar Optima plate reader (BMG). The reaction rate was calculated using the 0 to 0.5 h time frame. Percent inhibition was obtained by comparison of reaction rate with that of a control (i.e., with no test compound). IC50 values were calculated from a series of percent inhibition values determined at a range of inhibitor concentrations using software routines as implemented in the GraphPad Prism software package.

[4] = target: T3, Phospho-MET in EBC-1 cells (Homo sapiens, UniProt P08581); experiment: EBC-1 phospho-MET ELISA; format: cell-based; settings: 6 h compound, 40 ng/mL HGF 10 min, read-out: EBC1 pMET
T3 construct: endogenous in cells; host or cells: EBC-1 (JCRB0820)
Procedure: as §1
Fifteen thousand cells in DMEM supplemented with 0.5% characterized fetal bovine serum (FBS; Invitrogen, Carlsbad, Calif.) were added per well in a 96-well black clear bottom plate (Corning, Corning, N.Y.). Cells were then incubated overnight at 37 degrees Celsius, 5% CO2, 95% humidity. A serial dilution of test compound was dispensed into another 96-well black clear bottom plate (Corning, Corning, N.Y.) containing DMEM supplemented with 0.5% FBS. Diluted compound was then added to plates containing cells and incubated for 6 hours at 37 degrees Celsius, 5% CO2, 95% humidity. Cells were stimulated with 40 ng/mL HGF (R&D Systems, Minneapolis, Minn.) for 10 minutes, and then lysed. Phospho-MET in cell lysates was detected using the DuoSet IC Human Phospho-HGF R/c-MET ELISA (R&D Systems, Minneapolis, Minn.). Data was analyzed using Prism software (Graphpad, San Diego, Calif.) to calculate IC50 values.

T3 sequence (P08581 25-1390): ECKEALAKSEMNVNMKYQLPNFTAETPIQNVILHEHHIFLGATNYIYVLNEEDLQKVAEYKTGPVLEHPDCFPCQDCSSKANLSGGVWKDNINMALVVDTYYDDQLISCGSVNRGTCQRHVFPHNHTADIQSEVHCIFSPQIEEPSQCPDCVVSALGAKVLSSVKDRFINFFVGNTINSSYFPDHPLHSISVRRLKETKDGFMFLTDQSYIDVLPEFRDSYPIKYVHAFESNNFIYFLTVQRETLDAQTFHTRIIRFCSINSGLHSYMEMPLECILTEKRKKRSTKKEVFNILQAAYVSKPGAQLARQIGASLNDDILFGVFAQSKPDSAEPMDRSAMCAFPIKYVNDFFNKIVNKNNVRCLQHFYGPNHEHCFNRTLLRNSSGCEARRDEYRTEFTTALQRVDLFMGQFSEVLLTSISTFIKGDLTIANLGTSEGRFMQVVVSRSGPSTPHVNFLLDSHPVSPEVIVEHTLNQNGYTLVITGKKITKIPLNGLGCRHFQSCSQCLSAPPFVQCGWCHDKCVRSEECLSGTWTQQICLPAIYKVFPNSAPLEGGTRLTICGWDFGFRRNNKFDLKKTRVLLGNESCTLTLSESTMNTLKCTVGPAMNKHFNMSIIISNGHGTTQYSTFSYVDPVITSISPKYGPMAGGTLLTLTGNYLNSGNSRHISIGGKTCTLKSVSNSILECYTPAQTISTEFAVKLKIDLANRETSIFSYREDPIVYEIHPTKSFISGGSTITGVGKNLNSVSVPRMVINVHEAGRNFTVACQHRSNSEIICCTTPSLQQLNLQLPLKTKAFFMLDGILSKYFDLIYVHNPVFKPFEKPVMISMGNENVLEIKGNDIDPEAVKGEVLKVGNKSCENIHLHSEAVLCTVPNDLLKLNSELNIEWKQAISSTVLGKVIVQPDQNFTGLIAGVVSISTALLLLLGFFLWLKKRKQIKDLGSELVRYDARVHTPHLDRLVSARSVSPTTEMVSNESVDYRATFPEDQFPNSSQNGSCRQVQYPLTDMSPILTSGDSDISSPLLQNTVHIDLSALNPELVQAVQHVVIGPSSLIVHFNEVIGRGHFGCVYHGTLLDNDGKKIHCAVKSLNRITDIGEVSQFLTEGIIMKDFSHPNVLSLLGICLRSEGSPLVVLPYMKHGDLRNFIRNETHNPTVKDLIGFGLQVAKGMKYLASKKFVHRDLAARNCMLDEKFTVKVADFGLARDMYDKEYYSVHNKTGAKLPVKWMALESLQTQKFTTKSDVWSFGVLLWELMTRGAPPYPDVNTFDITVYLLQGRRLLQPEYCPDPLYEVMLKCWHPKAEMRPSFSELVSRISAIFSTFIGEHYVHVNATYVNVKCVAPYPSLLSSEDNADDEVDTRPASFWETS
T2 sequence (P10721 with tags, fused parts or gaps): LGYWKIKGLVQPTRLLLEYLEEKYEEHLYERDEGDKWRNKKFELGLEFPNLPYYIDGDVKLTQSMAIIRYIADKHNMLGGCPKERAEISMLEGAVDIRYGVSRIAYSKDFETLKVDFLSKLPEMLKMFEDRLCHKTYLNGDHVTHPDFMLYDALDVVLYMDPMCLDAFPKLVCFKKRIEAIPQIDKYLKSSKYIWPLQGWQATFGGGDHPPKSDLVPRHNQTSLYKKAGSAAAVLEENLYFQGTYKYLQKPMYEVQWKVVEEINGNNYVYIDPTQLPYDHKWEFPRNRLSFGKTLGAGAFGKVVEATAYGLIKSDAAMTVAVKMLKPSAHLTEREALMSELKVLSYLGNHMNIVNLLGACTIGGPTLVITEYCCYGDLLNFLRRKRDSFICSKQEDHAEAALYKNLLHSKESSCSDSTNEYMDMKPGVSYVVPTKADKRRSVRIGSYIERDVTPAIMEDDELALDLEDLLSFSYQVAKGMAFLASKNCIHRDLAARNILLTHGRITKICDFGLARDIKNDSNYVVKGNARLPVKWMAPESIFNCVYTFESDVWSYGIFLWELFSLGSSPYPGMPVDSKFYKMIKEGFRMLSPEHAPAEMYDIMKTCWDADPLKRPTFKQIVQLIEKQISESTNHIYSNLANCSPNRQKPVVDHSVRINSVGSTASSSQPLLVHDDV

| Structure (SMILES) | IC50 [1] [nM] | IC50 [2] [nM] | IC50 [3] [nM] | IC50 [4] [nM] |
| --- | --- | --- | --- | --- |
| Cn1cc(-c2cc(Oc3cc(F)c(NC(=O)c4cccn(-c5ccc(F)cc5)c4=O)cc3F)ccn2)cn1 [Example 1, N-(2,5-difluoro-4-((2-(1-methyl-1H-pyrazol-4-yl)pyridin-4-yl)oxy)phenyl)-1-(4-fluorophenyl)-2-oxo-1,2-dihydropyridine-3-carboxamide] | ≤ 100 | ≤ 100 | ≤ 100 | ≤ 100 |
| CCOc1ccn(-c2ccc(F)cc2)c(=O)c1C(=O)Nc1cc(F)c(Oc2ccnc(-c3cnn(C)c3)c2)cc1F [Example 2, N-(2,5-difluoro-4-(2-(1-methyl-1H-pyrazol-4-yl)pyridin-4-yloxy)phenyl)-4-ethoxy-1-(4-fluorophenyl)-2-oxo-1,2-dihydropyridine-3-carboxamide] | 100 to 1000 | ≤ 100 | > 1000 | ≤ 100 |
| O=C(Nc1cc(F)c(Oc2ccnc(-c3cnn(CCO)c3)c2)cc1F)c1cccn(-c2ccc(F)cc2)c1=O [Example 3, N-(2,5-difluoro-4-((2-(1-(2-hydroxyethyl)-1H-pyrazol-4-yl)pyridin-4-yl)oxy)phenyl)-1-(4-fluorophenyl)-2-oxo-1,2-dihydropyridine-3-carboxamide hydrochloride] | ≤ 100 |  | > 1000 | ≤ 100 |
| CCNc1ccn(-c2ccc(F)cc2)c(=O)c1C(=O)Nc1cc(F)c(Oc2ccnc(-c3cnn(C)c3)c2)cc1F [Example 5, N-(2,5-difluoro-4-((2-(1-methyl-1H-pyrazol-4-yl)pyridin-4-yl)oxy)phenyl)-4-(ethylamino)-1-(4-fluorophenyl)-2-oxo-1,2-dihydropyridine-3-carboxamide] | 100 to 1000 | 100 to 1000 | > 1000 |  |
